The results in this text go back to patent publication EP4578856A1, “HETEROCYCLIC COMPOUND” (Ubience Inc., priority 2022, dated 2024).

In assay [1] the target is T1, FAK protein (Homo sapiens, UniProt Q05397). The assay is described as follows: FAK kinase inhibitory activity, mobility shift assay (MSA, Carna Biosciences). The format is biochemical. Set-up: GST (N); purchased Carna Biosciences, Inc; host or cells: baculovirus expression system. The settings on record: inhibition rate at 30 nM; reaction time 5 hours. As for the experimental part:
The FAK kinase inhibitory activity was measured using a mobility shift assay (MSA) provided by Carna Biosciences, Inc.
The test compound was dissolved in DMSO to prepare a 3 µM solution. The solution was further diluted 25 times with an assay buffer (20 mmol/L HEPES, 0.01%Triton (registered trademark) X-100, 1 mmol/L DTT, pH 7.5) to obtain a test compound solution.
Incomplete human FAK kinase was expressed by fusing 376 to 1052 amino acids of Accession No. NP_722560.1 with GST at the N-terminus using the baculovirus expression system. The GST-FAK was purified by glutathione sepharose chromatography. A 4-fold concentration substrate (Blk/Lyntide, 1000 nmol/L)/ATP (25 µmol/L)/metal solution (Mg, 5 mmol/L) was prepared with kit buffer (20 mmol/L HEPES, 0.01% Triton (registered trademark) X-100, 5 mmol/L DTT, pH 7.5). A 2-fold concentration kinase solution was prepared with assay buffer.
In the same manner as described in Test Example 1, tests and evaluation of inhibitory activity and data analysis were performed. The reaction time was set to 5 hours. […]
Target sequence in this assay (Q05397 376-1052): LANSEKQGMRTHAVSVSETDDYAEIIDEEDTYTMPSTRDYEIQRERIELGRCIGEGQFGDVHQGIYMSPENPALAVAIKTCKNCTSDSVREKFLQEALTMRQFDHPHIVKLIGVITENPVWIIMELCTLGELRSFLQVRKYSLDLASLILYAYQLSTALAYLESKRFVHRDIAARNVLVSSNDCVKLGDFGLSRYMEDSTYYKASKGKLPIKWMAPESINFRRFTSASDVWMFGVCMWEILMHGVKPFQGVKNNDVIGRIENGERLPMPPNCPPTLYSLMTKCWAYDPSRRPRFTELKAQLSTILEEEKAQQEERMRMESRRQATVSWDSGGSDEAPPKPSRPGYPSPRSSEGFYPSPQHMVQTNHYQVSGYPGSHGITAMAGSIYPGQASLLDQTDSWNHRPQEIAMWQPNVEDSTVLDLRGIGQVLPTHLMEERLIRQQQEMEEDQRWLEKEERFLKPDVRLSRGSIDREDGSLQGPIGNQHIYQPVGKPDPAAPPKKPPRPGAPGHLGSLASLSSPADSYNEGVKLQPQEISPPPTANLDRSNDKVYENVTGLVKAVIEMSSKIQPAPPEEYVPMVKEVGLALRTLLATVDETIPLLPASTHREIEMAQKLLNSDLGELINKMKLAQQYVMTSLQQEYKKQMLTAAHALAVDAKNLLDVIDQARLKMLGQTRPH

In assay [2] the target is T1, FAK protein. Nature of the assay: Degradation inducing activity of FAK protein in PA-1 cells, Western blotting (Simple Western JESS). Set-up: endogenous in cells; host or cells: PA-1 (ATCC CRL-1572). To be noted: at 10 µM, 24 hours. The format is cell-based. As for the experimental part:
In vitro degradation inducing activity of FAK protein of compounds of Examples was evaluated by Western Blotting (WB).
By a test compound, 10 mM DMSO solution was prepared, which was used as a 10 µM test compound solution. Further, the solution was diluted 10-fold with DMSO to prepare a 1 mM solution, which was used as a 1 µM test compound solution.
PA-1 cells (ATCC: CRL-1572, Lot: 70055709) were cultured in Eagle's Minimum Essential Medium supplemented with 10% FBS and 1% Penicillin/Streptomycin. The PA-1 cells seeded in a 24 well plate at 200,000 cells/well/1 mL were cultured for 24 hours, and then 1 µL of DMSO or a test compound solution was added thereto and treatment was performed for 24 hours. Cells were harvested and lysed for 20 minutes on ice using RIPA lysis buffer (Sigma, Cat#R0278) supplemented with protease inhibitor cocktail (Sigma, Cat#P8340; Roche, Cat#P11873580001), and phosphatase inhibitor cocktail (Sigma, Cat#P5726, P0044). The lysate was sonicated (15 seconds, amplitude 30%, 1 cycle) and then centrifuged at 12500 rpm for 15 minutes at 4°C. The protein concentration was determined by BCA assay kit (Thermo Fisher Scientific, Cat#23225).
The western blotting was performed using Simple Western JESS (protein simple). A cell lysis sample (protein amount; about 2 µg) was loaded on a plate of Simple Western JESS, and the expression level of […] was detected using a 12-230 kDa Wes Separation Module (Protein simple, Cat#SM-WO04), an Anti-Rabbit Detection Module for Wes (Protein simple, Cat#DM-001), and a Total Protein Detection Module for Wes (Protein simple, Cat#DM-TP01). As the primary antibody, a material obtained by diluting FAK Rabbit mAb (Cell Signaling Technology, Cat#3285) at 1:100 was used, and as the secondary antibody, a material obtained by diluting HRP-labeled anti-rabbit IgG antibody (Cell Signaling Technology, Cat#7074S) at 1:250 was used. The expression level of the target protein was standardized using the total protein amount loaded as a reference. The standardized expression level data of the control (DMSO) was taken as 100%, and the degradation rate (%) was calculated from the average standardized expression level data of the test compounds (compounds of Examples 109 to 128). All analysis steps, such as data detection and analysis, are fully automated.
For orientation: In western blotting, separated proteins are transferred to a membrane and probed.
Target sequence in this assay (Q05397 whole entry): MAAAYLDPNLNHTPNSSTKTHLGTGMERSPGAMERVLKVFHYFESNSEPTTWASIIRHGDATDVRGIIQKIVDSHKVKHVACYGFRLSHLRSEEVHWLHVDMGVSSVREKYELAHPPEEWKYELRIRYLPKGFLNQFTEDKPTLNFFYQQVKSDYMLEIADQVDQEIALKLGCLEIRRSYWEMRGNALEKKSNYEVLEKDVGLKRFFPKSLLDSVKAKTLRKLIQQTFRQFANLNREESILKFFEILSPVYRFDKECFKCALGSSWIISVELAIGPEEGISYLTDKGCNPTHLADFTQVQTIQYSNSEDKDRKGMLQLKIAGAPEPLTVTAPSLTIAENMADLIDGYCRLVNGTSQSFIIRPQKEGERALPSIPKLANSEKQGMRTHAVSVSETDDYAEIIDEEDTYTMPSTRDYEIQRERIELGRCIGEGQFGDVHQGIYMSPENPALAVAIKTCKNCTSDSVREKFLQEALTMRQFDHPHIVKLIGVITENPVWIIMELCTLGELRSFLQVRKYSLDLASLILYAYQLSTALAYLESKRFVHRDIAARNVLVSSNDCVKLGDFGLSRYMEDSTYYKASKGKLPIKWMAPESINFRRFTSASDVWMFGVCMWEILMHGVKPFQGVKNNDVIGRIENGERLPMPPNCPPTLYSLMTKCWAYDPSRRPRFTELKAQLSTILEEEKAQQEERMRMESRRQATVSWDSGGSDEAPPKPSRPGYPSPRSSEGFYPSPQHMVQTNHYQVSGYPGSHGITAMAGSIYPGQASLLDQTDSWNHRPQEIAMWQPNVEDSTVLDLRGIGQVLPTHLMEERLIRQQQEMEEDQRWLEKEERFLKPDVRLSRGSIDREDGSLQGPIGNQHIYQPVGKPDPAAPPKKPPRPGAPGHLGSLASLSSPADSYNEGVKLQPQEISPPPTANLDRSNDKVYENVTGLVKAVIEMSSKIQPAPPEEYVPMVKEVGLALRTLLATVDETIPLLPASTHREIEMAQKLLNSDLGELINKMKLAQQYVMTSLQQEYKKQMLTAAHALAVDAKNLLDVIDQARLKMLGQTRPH

The target in assay [3] is T2, human ALK kinase (Homo sapiens, UniProt Q9UM73).
T2 construct: GST (N); purchased Carna Biosciences, Inc; host or cells: baculovirus expression system
T2 sequence (Q9UM73 1058-1620): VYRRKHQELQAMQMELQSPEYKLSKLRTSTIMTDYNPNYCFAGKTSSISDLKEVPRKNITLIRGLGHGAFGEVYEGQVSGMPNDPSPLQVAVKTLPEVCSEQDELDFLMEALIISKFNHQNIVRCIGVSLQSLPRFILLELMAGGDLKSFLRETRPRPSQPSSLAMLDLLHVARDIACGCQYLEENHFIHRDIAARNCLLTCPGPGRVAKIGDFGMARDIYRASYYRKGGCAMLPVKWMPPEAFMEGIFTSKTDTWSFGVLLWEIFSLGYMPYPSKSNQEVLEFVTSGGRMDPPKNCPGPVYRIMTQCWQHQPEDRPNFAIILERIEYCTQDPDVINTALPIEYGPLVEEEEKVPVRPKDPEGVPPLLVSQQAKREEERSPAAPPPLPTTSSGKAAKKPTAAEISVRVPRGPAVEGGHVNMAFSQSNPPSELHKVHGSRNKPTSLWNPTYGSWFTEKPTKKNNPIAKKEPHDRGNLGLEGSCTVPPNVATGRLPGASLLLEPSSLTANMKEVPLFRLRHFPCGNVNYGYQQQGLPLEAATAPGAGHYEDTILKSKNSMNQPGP
Nature of the assay: ALK kinase inhibitory activity, mobility shift assay (MSA, Carna Biosciences). To be noted: inhibition rate at 10 nM. The format is biochemical. On the procedure:
The ALK kinase inhibitory activity was measured using a mobility shift assay (MSA) provided by Carna Biosciences, Inc.
The test compound was dissolved in DMSO to prepare a 1 µM solution. The solution was further diluted 25 times with an assay buffer (20 mmol/L HEPES, 0.01%Triton (registered trademark) X-100, 1 mmol/L DTT, pH 7.5) to obtain a test compound solution.
The human ALK kinase was expressed by fusing the cytoplasmic domain (1058 to 1620 amino acids of Accession No. BAG 10812.1) with GST at the N-terminus using the baculovirus expression system. The GST-ALK was purified by glutathione sepharose chromatography. A 4-fold concentration substrate (Srctide, 1000 nmol/L)/ATP (50 µmol/L)/metal solution (Mg, 5 mmol/L) was prepared with kit buffer (20 mmol/L HEPES, 0.01% Triton (registered trademark) X-100, 5 mmol/L DTT, pH 7.5). A 2-fold concentration kinase solution was prepared with assay buffer.
In the same manner as described in Test Example 1, tests and evaluation of inhibitory activity and data analysis were performed.

With `COC[C@H]1CN[C@H](C)CN1CC(=O)N1CC(C)(C)c2ncc(Cc3cccc(OCCN4CCN(CCOCCOCCOCCOCC(=O)Nc5ccc(Nc6ncc(C(F)(F)F)c(NCc7cccc(S(C)(=O)=O)c7)n6)cc5)CC4)c3)cc21` [Example 128, 14-(4-(2-(3-((1-(2-((2R,5R)-2-(Methoxymethyl)-5-methylpiperazin-1-yl)acetyl)-3,3-dimethyl-2,3-dihydro-1H-pyrrolo[3,2-b]pyridin-6-yl)methyl)phenoxy)ethyl)piperazin-1-yl)-N-(4-((4-((3-(methylsulfonyl)benzyl)amino)-5-(trifluoromethyl)pyrimidin-2-yl)amino)phenyl)-3,6,9,12-tetraoxatetradecanamide], in assay [1], the inhibition at 0.03 µM lay within 50 to 75%. As for `C[C@@H]1CN(CC(=O)N2CC(C)(C)c3ncc(Cc4ccc(F)cc4)cc32)[C@@H](CN(C)CCOCCOCCOCC(=O)Nc2ccc(Nc3ncc(C(F)(F)F)c(NCc4cccc(S(C)(=O)=O)c4)n3)cc2)CN1` [Example 111, 1-((2R,5R)-1-(2-(6-(4-Fluorobenzyl)-3,3-dimethyl-2,3-dihydro-1H-pyrrolo[3,2-b]pyridin-1-yl)-2-oxoethyl)-5-methylpiperazin-2-yl)-2-methyl-N-(4-((4-((3-(methylsulfonyl)benzyl)amino)-5-(trifluoromethyl)pyrimidin-2-yl)amino)phenyl)-5,8,11-trioxa-2-azatridecan-13-amide], in assay [2], the “FAK protein degradation rate” value was no less than 75%. The inhibition at 0.03 µM in assay [1] is no less than 75%. With `COC[C@H]1CN[C@H](C)CN1CC(=O)N1CC(C)(C)c2ncc(Cc3ccccc3OCCN3CCN(CCOCCOCCOCC(=O)Nc4ccc(Nc5ncc(C(F)(F)F)c(NCc6cccc(S(C)(=O)=O)c6)n5)cc4)CC3)cc21` [Example 122, 2-(2-(2-(2-(4-(2-(2-((1-(2-((2R,5R)-2-(Methoxymethyl)-5-methylpiperazin-1-yl)acetyl)-3,3-dimethyl-2,3-dihydro-1H-pyrrolo[3,2-b]pyridin-6-yl)methyl)phenoxy)ethyl)piperazin-1-yl)ethoxy)ethoxy)ethoxy)-N-(4-((4-((3-(methylsulfonyl)benzyl)amino)-5-(trifluoromethyl)pyrimidin-2-yl)amino)phenyl)acetamide], the inhibition at 0.03 µM in assay [1] fell in the range of 50 to 75%. For `COC[C@H]1CN[C@H](C)CN1CC(=O)N1CC(C)(C)c2ncc(Cc3ccccc3OCCOCCOCCOCCOCCNC(=O)CN3CCC(c4cc(OC(C)C)c(Nc5ncc(Cl)c(Nc6ccccc6S(=O)(=O)C(C)C)n5)cc4C)CC3)cc21` [Example 100, 2-(4-(4-((5-Chloro-4-((2-(isopropylsulfonyl)phenyl)amino)pyrimidin-2-yl)amino)-5-isopropoxy-2-methylphenyl)piperidin-1-yl)-N-(14-(2-((1-(2-((2R,5R)-2-(methoxymethyl)-5-methylpiperazin-1-yl)acetyl)-3,3-dimethyl-2,3-dihydro-1H-pyrrolo[3,2-b]pyridin-6-yl)methyl)phenoxy)-3,6,9,12-tetraoxatetradecyl)acetamide], the inhibition at 0.01 µM in assay [3] is no less than 75%. Same read-out and setting: the value for `COC[C@H]1CN[C@H](C)CN1CC(=O)N1CC(C)(C)c2ncc(Cc3cccc(OCCOCCOCCOCCOCCOCCNC(=O)CN4CCC(c5cc(OC(C)C)c(Nc6ncc(Cl)c(Nc7ccccc7S(=O)(=O)C(C)C)n6)cc5C)CC4)c3)cc21` [Example 107, 2-(4-(4-((5-Chloro-4-((2-(isopropylsulfonyl)phenyl)amino)pyrimidin-2-yl)amino)-5-isopropoxy-2-methylphenyl)piperidin-1-yl)-N-(17-(3-((1-(2-((2R,5R)-2-(methoxymethyl)-5-methylpiperazin-1-yl)acetyl)-3,3-dimethyl-2,3-dihydro-1H-pyrrolo[3,2-b]pyridin-6-yl)methyl)phenoxy)-3,6,9,12,15-pentaoxaheptadecyl)acetamide] was no less than 75%; that for `Cc1cc(Nc2ncc(Cl)c(Nc3ccccc3S(=O)(=O)C(C)C)n2)c(OC(C)C)cc1C1CCN(CC(=O)NCCOCCN(C)C[C@H]2CN[C@H](C)CN2CC(=O)N2CC(C)(C)c3ncc(Cc4ccc(F)cc4)cc32)CC1` [Example 85, 2-(4-(4-((5-Chloro-4-((2-(isopropylsulfonyl)phenyl)amino)pyrimidin-2-yl)amino)-5-isopropoxy-2-methylphenyl)piperidin-1-yl)-N-(2-(2-((((2R,5R)-1-(2-(6-(4-fluorobenzyl)-3,3-dimethyl-2,3-dihydro-1H-pyrrolo[3,2-b]pyridin-1-yl)-2-oxoethyl)-5-methylpiperazin-2-yl)methyl) (methyl)amino)ethoxy)ethyl)acetamide] was 50 to 75%. Turning to `C[C@@H]1CN(CC(=O)N2CC(C)(C)c3ncc(Cc4ccc(F)cc4)cc32)[C@@H](CN(C)CCOCC(=O)Nc2ccc(Nc3ncc(C(F)(F)F)c(NCc4cccc(S(C)(=O)=O)c4)n3)cc2)CN1` [Example 109, 2-(2-((((2R,5R)-1-(2-(6-(4-Fluorobenzyl)-3,3-dimethyl-2,3-dihydro-1H-pyrrolo[3,2-b]pyridin-1-yl)-2-oxoethyl)-5-methylpiperazin-2-yl)methyl)(methyl)amino)ethoxy)-N-(4-((4-((3-(methylsulfonyl)benzyl)amino)-5-(trifluoromethyl)pyrimidin-2-yl)amino)phenyl) acetamide], in assay [1], the inhibition at 0.03 µM was no less than 75%. On the same count and under the same terms, the value for `COC[C@H]1CN[C@H](C)CN1CC(=O)N1CC(C)(C)c2nc(CN3CCN(CCOCCOCC(=O)Nc4ccc(Nc5ncc(C(F)(F)F)c(NCc6cccc(S(C)(=O)=O)c6)n5)cc4)CC3)c(Cc3ccc(F)cc3)cc21` [Example 116, 2-(2-(2-(4-((6-(4-Fluorobenzyl)-1-(2-((2R,5R)-2-(methoxymethyl)-5-methylpiperazin-1-yl)acetyl)-3,3-dimethyl-2,3-dihydro-1H-pyrrolo[3,2-b]pyridin-5-yl)methyl)piperazin-1-yl)ethoxy)ethoxy)-N-(4-((4-((3-(methylsulfonyl)benzyl)amino)-5-(trifluoromethyl)pyrimidin-2-yl)amino)phenyl)acetamide] was 50 to 75%. On to `Cc1cc(Nc2ncc(Cl)c(Nc3ccccc3S(=O)(=O)C(C)C)n2)c(OC(C)C)cc1C1CCN(CC(=O)NCCOCCOCCOCCOCCOCCN(C)C[C@H]2CN[C@H](C)CN2CC(=O)N2CC(C)(C)c3ncc(Cc4ccc(F)cc4)cc32)CC1` [Example 89, 2-(4-(4-((5-Chloro-4-((2-(isopropylsulfonyl)phenyl)amino)pyrimidin-2-yl)amino)-5-isopropoxy-2-methylphenyl)piperidin-1-yl)-N-(1-((2R,5R)-1-(2-(6-(4-fluorobenzyl)-3,3-dimethyl-2,3-dihydro-1H-pyrrolo[3,2-b]pyridin-1-yl)-2-oxoethyl)-5-methylpiperazin-2-yl)-2-methyl-5,8,11,14,17-pentaoxa-2-azanonadecan-19-yl)acetamide], for which, in assay [3], the inhibition at 0.01 µM was in the range of 50 to 75%.

As a reminder, the inhibition is the change of the read-out against control, counted positive when it falls.
